Earlier results in US20250049963A1, “GLYCOSYLATED DENDRIMERS FOR TARGETED INTRACELLULAR DELIVERY” (The Johns Hopkins University, priority 2021, published 2025).

Biological target: T1, GLUT2 (Homo sapiens, UniProt P11168)
T1 sequence (P11168 1-524): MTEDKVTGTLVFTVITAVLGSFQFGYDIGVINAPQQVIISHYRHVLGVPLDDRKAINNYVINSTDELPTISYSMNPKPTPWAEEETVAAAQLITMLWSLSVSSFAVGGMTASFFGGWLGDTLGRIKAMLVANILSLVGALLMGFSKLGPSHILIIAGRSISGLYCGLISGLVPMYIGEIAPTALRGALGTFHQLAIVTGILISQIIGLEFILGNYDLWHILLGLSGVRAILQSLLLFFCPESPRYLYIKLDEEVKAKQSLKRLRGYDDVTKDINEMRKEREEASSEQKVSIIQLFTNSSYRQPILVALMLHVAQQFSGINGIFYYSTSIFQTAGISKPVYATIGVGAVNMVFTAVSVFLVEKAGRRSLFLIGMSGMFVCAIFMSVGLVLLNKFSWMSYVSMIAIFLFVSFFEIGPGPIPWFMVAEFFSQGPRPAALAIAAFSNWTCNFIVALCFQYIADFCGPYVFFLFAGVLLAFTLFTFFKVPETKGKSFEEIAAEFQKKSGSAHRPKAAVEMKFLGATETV
Conditions: cited from earlier work

NC1C(O)[C@H](O)C(CO)O[C@@H]1O (stereo partly shown) [GlcN, glucosamine]
affinity of GLUT2 for GlcN relative to glucose: ~20 fold
